Here are results for 13 compounds from patent US20150119251A1, “AGRICULTURAL PLANT-PROTECTING AGENTS CONTAINING DIPEPTIDE DERIVATIVE AS ACTIVE INGREDIENT” (REPUBLIC OF KOREA (RURAL DEVELOPMENT ADMINISTRATION), priority 2012, published 2015).

Test [1] deals with tobacco bacterial rot (Pectobacterium carotovorum). The experiment in a line: Suppression of tobacco bacterial rot. The format is in vivo, Pectobacterium carotovorum SCC1. The procedure:
A tobacco or cucumber was sown in a plastic pot with a diameter of 10 cm×13 cm, and then, 12 pots were added in a yellow box. After seeding, 100 μL was inoculated to the cotyledons of cucumber or tobacco, in which first leaf was started to come out. The test compounds were dissolved in 20% methanol to make a stock solution, and then, the stock solution was diluted to the concentrations of 1, 10, and 100 ppm.
After 7 days, the pathogen of a plant bacterial rot (Pectobacterium carotovorum SCC1) was cultured in a TSA medium for 27 hours; and then, the cultured pathogen was sprayed in a concentration of 10^8 cfu/mL to the plant leaves, and cultured at 30° C. for 3 days. The plant anthracnose germ (Colletotrichum orbiculare) was cultured in a GBA (Green bean agar) medium to induce spores for about 2 to 3 weeks. The germ was sprayed in a concentration of 10^5 cell/mL and then cultured at 26° C. for 1 day. When fourth or fifth leaf came out, 200 μL of each of the test compounds was inoculated to third leaf. After 7 days, the pathogen of the plant bacterial rot was sprayed to the plant leaves in the concentration of 10^8 cfu/mL, and then cultured at 30° C. for 3 days.
The investigation was performed with naked eyes, and the lesion relative areas were investigated until 0 to 100% according to the shortness degrees of the bacterial rot. The anthracnose was investigated by counting the number of lesions occurred on the leaves.

In test [2] the test system is pepper phytophthora blight (Phytopthora capsici). Nature of the test: Suppression of pepper phytophthora blight on leaves. To be noted: for Outbreak of the phytophthora blight on the leaves: drench-treated to the roots; for Lesion outbreak rate: pepper leaves; for Effect on suppressing the outbreak of pepper phytophthora blight or bacterial rot as compared with the non-treated control group: directly sprayed to the leaves; for Lesion formation, pepper phytophthora test: drench-treated, 1.0 or 10.0 ppm. Format: in vivo. The procedure: (§1) The peppers were raised in the same method as Example 3, and then, the test compounds were dissolved in 20% methanol to make a stock solution, and a stock was diluted to the concentrations of 0.1, 1.0, and 10.0 ppm. The test solutions were sprayed on the leaves or drench-treated on the leaves. After 7 days, the pathogen of plant bacterial rot (Pectobacterium carotovorum SCC1) was cultured in a TSA medium for 27 hours, and then, wetted on an 8 mm diameter paper disc in the concentration of 10^8 cfu/mL. The paper disc was located in the center of the leaves that were cut roundly, and then, after about 7 days, the lesion area was measured. In the case of phytophthora, the potato agar medium cultured with the phytophthora (Phytophthora capsici) was cut in the internal diameter size of 5 mm with a cork borer, and then inoculated to the leaves. After 7 days, the lesion area was observed. In the case of a bacterial rot, when Compounds 6, 89, 93, and 95 were sprayed on the pepper leaves, the bacterial rot was not found in the concentration of 1 or 10 ppm as compared with the non-treated group. […] The Suppression of lesion formation on the leaves when these compounds were drench-treated to the roots can be explained as it was resulted from that systemic disease resistance was induced in the whole plant. These test results are illustrated in the photographs of FIGS. 5 to 9.

The test system of test [3] is cucumber leaves. Nature of the test: Plant growth promotion, width of cucumber leaf. The format is in vivo. To be noted: non-treated = 100.0 (92.1 mm), unit of the source corrected. The procedure:
The active ingredients (Compounds 5 to 8, 14, and 15) were drenched to the leaves of a plant (pepper, potato, tomato, tobacco, cucumber, and Chinese cabbage), and then, after 7 days, the plant lengths were measured. Since then, the plant disease pathogen was inoculated, and then, after 3 to 5 days, the sizes of the plant leaves were measured and compared with the control group to obtain the relative growth degrees.

Test [4] concerns plant bacterial rot (Pectobacterium carotovorum SCC1). Nature of the test: Suppression of bacterial rot on pepper leaves (paper disc on cut leaves). The conditions noted are these: sprayed on the pepper leaves, 1 or 10 ppm. Format: in vivo. How it is done: as §1
For test [5], the system named is PR1, PR4, PR10, beta-1,3-glucanase, chitinase and peroxidase genes. The experiment in a line: Expression of defense genes in pepper plant (RT-PCR) after compound treatment and pathogen inoculation. Format: in vivo. The conditions noted are these: pepper seedling, compound treated and then P. carotovora or P. capsici treated, FIG. 1. The text has this: In order to testify the disease resistance expression in the case of treating the dipeptide derivative of the present invention to the seeding of pepper, PR-1, beta-1,3-glucanase, chitinase, PR4, peroxidase, and PR10 primer, and the seedling of pepper were used. The seedling of pepper was raised in a greenhouse for 4 weeks, Compounds were sprayed thereto in various concentrations, and then, after three or one week, phytophthora (Phytophthora capcisi) and the pathogen of a bacterial rot (Pectobacterium carotovorum) were respectively inoculated.
Since then, after 12, 24, and 48 hours, the respective pepper leaves were collected in an amount of 1 g, and then, stored at an ultralow temperature-room at […]. The stored plant leaves were pulverized along with liquid nitrogen, and then, […] was extracted by using a RNA extraction kit (Easy-Spin™IIP Total RNA Extraction Kit, Intron Biotechnology, Korea) and Ex Taq polymerase by Kishimoto et al. (2005) (Takara Biomedicals, Otsu, Japan). For amplification, 0.1 μg of cDNA, 10 pMol of each of forward and reverse primers, 250 nM of dNTPs, and 0.5 U of Ex Taq polymerase were added to 20 μl, of a buffer solution. PCR was performed at 94C and 58C in a thermal cycler (PTC-100, USA), and the products by PCR were analyzed under the condition of 1% agarose gel (in 0.5×TAE buffer) (80 V, 60 min). All the RT-PCR tests were repeated twice. […]

For test [6], the system named is pepper plant. Nature of the test: Overcoming cold weather-damage on pepper plant (2° C. for 1 day). Format: in vivo. The conditions noted are these: then room temperature 3 days. The procedure:
In order to confirm the immunity-activating effect of the compounds of the present invention, the plants were exposed at the temperature so that they could be artificially damaged from cold weather, and the growth and development were observed. After growing the plants for 6 weeks, the compounds were drenched or sprayed on the leaves and the plants were raised for 1 week. After the plants were exposed under a 2° C. growth room for 1 day, they were raised at room temperature for 3 days. The degrees of the growth and development of the plants were observed and the degrees of the damage from cold weather in the plant were determined. […] The test results are illustrated in the photographs of FIGS. 11 and 12.

Peptide text beside a SMILES is read from it. * marks the point of attachment. Boc = CC(C)(C)OC(=O)*; OBn = c1ccc(CO*)cc1; OAll = C=CCO*

With `COC(=O)CNC(=O)[C@@H](N)CC(C)C` [Compound 4] (H-Leu-Gly-OMe), the Lesion outbreak rate worked out at 47% in test [1] (Table 3, tobacco, 1 ppm); 80% in test [1] (Table 3, tobacco, 10 ppm); 90% in test [1] (Table 3, tobacco, 100 ppm). Further, the “Outbreak of the phytophthora blight on the leaves” value in test [2] is “significantly decreased”.
`COC(=O)CNC(=O)[C@@H](NC(=O)OC(C)(C)C)C(C)C` [Compound 5] (Boc-Val-Gly-OMe): the Lesion outbreak rate in test [1] (Table 3, tobacco, 1 ppm) is given as 73%; in test [1] (Table 3, tobacco, 10 ppm) it was 40%; in test [1] (Table 3, tobacco, 100 ppm) it was 7.7%. The Width of cucumber leaf (relative value to the non-treated group) in test [3] (1.0 ppm) was determined as 100%; in test [3] (10 ppm), 111%; in test [3] (100 ppm), 121%.
Take `COC(=O)CNC(=O)[C@@H](N)C(C)C` [Compound 6] (H-Val-Gly-OMe): the Lesion outbreak rate in test [1] (Table 3, tobacco, 1 ppm) turned out to be 11%; in test [1] (Table 3, tobacco, 10 ppm) it was 2.1%; in test [1] (Table 3, tobacco, 100 ppm), 3.5%. The “Bacterial rot on pepper leaves as compared with the non-treated group” value in test [4] is given as “not found”. Besides, the Width of cucumber leaf (relative value to the non-treated group) came to 114% in test [3] (1.0 ppm), 124% in test [3] (10 ppm) and 123% in test [3] (100 ppm).
Take `COC(=O)C(CC(C)C)NC(=O)C(NC(=O)OC(C)(C)C)C(C)O` (stereo not drawn) [Compound 7] (Boc-Thr-Leu-OMe; configuration not given here): the Lesion outbreak rate is listed as 40% in test [1] (Table 3, tobacco, 1 ppm); 27% in test [1] (Table 3, tobacco, 10 ppm); 20% in test [1] (Table 3, tobacco, 100 ppm). The results for the Width of cucumber leaf (relative value to the non-treated group) in test [3] (1.0 ppm), in test [3] (10 ppm) and in test [3] (100 ppm) were 110%, 121% and 121%, respectively.
For `COC(=O)C(CC(C)C)NC(=O)C(N)C(C)O` (stereo not drawn) [Compound 8] (H-Thr-Leu-OMe; configuration not given here), the Lesion outbreak rate is on record as 43% in test [1] (Table 3, tobacco, 1 ppm); 57% in test [1] (Table 3, tobacco, 10 ppm); 0% in test [1] (Table 3, tobacco, 100 ppm). The values for the Width of cucumber leaf (relative value to the non-treated group) in test [3] (1.0 ppm), in test [3] (10 ppm) and in test [3] (100 ppm) were 122%, 123% and 120%, respectively.
`COC(=O)[C@H](C)NC(=O)CNC(=O)OC(C)(C)C` [Compound 14] (Boc-Gly-Ala-OMe): the Lesion outbreak rate in test [1] (Table 6, tobacco, 1 ppm) was found to be 50%; in test [1] (Table 6, tobacco, 10 ppm) it was 78%; in test [1] (Table 6, tobacco, 100 ppm) it was 35%. Further, the figures for the Width of cucumber leaf (relative value to the non-treated group) in test [3] (1.0 ppm), in test [3] (10 ppm) and in test [3] (100 ppm) were 104%, 103% and 113%, respectively.
With `COC(=O)[C@H](C)NC(=O)[C@H](Cc1ccc(O)cc1)NC(=O)OC(C)(C)C` [Compound 15], the Lesion outbreak rate in test [1] (Table 6, tobacco, 1 ppm) came to 75%; in test [1] (Table 6, tobacco, 10 ppm), 63%; in test [1] (Table 6, tobacco, 100 ppm), 50%. The values for the Width of cucumber leaf (relative value to the non-treated group) in test [3] (1.0 ppm), in test [3] (10 ppm) and in test [3] (100 ppm) were 98.9%, 113% and 112%, respectively.
`CCOC(=O)C(C)NC(=O)C(NC(=O)OC(C)(C)C)C(C)CC` (stereo not shown) [Compound 80]: the “Expression of the genes of PR1, PR4, PR10, beta-1,3-glucanase, chitonase and peroxidase” value in test [5] is “strongly expressed”. Further, the values for the Lesion outbreak rate in test [2] (0.1 ppm) and in test [2] (1.0 ppm) were 14 area % and 8.9 area %, respectively.
Consider `COC(=O)[C@H](Cc1ccccc1)NC(=O)[C@@H](N)CC(=O)O` [Compound 89] (H-Asp-Phe-OMe), for which the “Bacterial rot on pepper leaves as compared with the non-treated group” value in test [4] was “not found”. For the same compound, the “Expression of the genes of PR1, PR4, PR10, beta-1,3-glucanase, chitonase and peroxidase” value in test [5] is “strongly expressed”. The “Effect on suppressing the outbreak of pepper phytophthora blight or bacterial rot as compared with the non-treated control group” value in test [2] is reported as “excellent”. In addition, the “Lesion formation, pepper phytophthora test” value in test [2] is “no the lesion formations”. Further, in test [2] (in vivo), the “Effect on suppression of the outbreak of pepper phytophthora blight as compared with the control drug BTH” value is “excellent effect”. The Lesion outbreak rate was 9.3 area % in test [2] (0.1 ppm) and 2.3 area % in test [2] (1.0 ppm).
Regarding `COC(=O)C[C@H](NC(=O)OC(C)(C)C)C(=O)N[C@@H](Cc1ccccc1)C(=O)OC` [Compound 90] (Boc-Asp(OMe)-Phe-OMe), the Lesion outbreak rate in test [2] (0.1 ppm) worked out at 24 area %; in test [2] (1.0 ppm), 7.2 area %. Also, the Cold weather-damage entry in test [6] (sprayed on the leaves) is reported as “no damages observed”.
As to `COC(=O)C[C@H](N)C(=O)N[C@@H](Cc1ccccc1)C(=O)OC` [Compound 91] (H-Asp(OMe)-Phe-OMe), the “Effect on suppressing the outbreak of pepper phytophthora blight or bacterial rot as compared with the non-treated control group” value in test [2] was “excellent”. Further, the Lesion outbreak rate amounted to 14 area % in test [2] (0.1 ppm) and 24 area % in test [2] (1.0 ppm). For the same compound, the Cold weather-damage entry in test [6] (sprayed on the leaves) is “no damages observed”.
In the case of `C=CCOC(=O)C[C@H](N)C(=O)N[C@@H](Cc1ccccc1)C(=O)OC` [Compound 93] (H-Asp(OAll)-Phe-OMe), the “Bacterial rot on pepper leaves as compared with the non-treated group” value in test [4] is on record as “not found”. Also, the “Effect on suppressing the outbreak of pepper phytophthora blight or bacterial rot as compared with the non-treated control group” value in test [2] is “excellent”. For the same compound, the Lesion outbreak rate is reported as 35 area % in test [2] (0.1 ppm) and 23 area % in test [2] (1.0 ppm). For the same compound, in test [6] (sprayed on the leaves), the Cold weather-damage entry is listed as “no damages observed”.
`COC(=O)[C@H](Cc1ccccc1)NC(=O)[C@@H](N)CC(=O)OCc1ccccc1` [Compound 95] (H-Asp(OBn)-Phe-OMe): in test [4], the “Bacterial rot on pepper leaves as compared with the non-treated group” value was “not found”. In addition, the “Outbreak of the phytophthora blight on the leaves” value in test [2] was “significantly decreased”. The “Lesion formation, pepper phytophthora test” value in test [2] is listed as “no the lesion formations”. Besides, the Lesion outbreak rate amounted to 9.2 area % in test [2] (0.1 ppm) and 3.8 area % in test [2] (1.0 ppm). Besides, the Cold weather-damage result is listed as “no cold weather-damages” in test [6] (drench-treated) and “no damages observed” in test [6] (sprayed on the leaves).
